Results on 15 molecules are retold here after patent US7223781B2 (Beiersdorf AG, priority 2001, dated 2007).

The test concerns the target T1, COX-1 (Sus scrofa, UniProt A0A287ANF9).
T1 construct: A platelet suspension obtained from pig's blood is preincubated with the test substance; endogenous in cells; host or cells: platelets from pig's blood
Put plainly: In-vitro test for COX-1 inhibition: fluorimetric quantification of malonaldehyde (MDA) in A23187-activated pig platelet suspension. The test is classed as cell-based. The method, then: In-vitro Test Procedure for the Determination of COX-1 Inhibition
The inhibition of the cyclooxygenase pathway is carried out by fluorimetric quantification of malonaldehyde (MA). This condenses in the acidic medium with twice the molar amount of thiobarbituric acid to give a red pigment dye, which has a fluorescence at λExcitation: 533 nm, λEmission: 550 nm.
A platelet suspension obtained from pig's blood is preincubated with the test substance for 10 min at 37° C. The concentration of the suspension should be 8×10^8 cells/ml. The arachidonic acid cascade is then activated by addition of the antibiotic calcium ionophore A23187 ([…]). After a further 10 min at 37° C., the reaction is stopped using a trichloroacetic acid solution. The samples are centrifuged and the supernatant is incubated with thiobarbituric acid for 30 min at 70° C. After cooling (30 min at room temperature), the samples are measured fluorimetrically at 533/550 nm and the IC50 values of the test compounds are determined therefrom by means of a calibration curve.

Where [1] appears, read: Table 7, arylamides, pig platelets, read-out: MDA pIC50 (converted).
The mark [2] stands for this setting: Table 11, heteroaryl- and naphthylamides, pig platelets, read-out: MDA pIC50 (converted).
Where [3] appears, read: Table 7, arylamides, pig platelets, read-out: MDA IC50.

Where two headings read alike, the source gives them in different places.

T1 sequence (A0A287ANF9 25-600): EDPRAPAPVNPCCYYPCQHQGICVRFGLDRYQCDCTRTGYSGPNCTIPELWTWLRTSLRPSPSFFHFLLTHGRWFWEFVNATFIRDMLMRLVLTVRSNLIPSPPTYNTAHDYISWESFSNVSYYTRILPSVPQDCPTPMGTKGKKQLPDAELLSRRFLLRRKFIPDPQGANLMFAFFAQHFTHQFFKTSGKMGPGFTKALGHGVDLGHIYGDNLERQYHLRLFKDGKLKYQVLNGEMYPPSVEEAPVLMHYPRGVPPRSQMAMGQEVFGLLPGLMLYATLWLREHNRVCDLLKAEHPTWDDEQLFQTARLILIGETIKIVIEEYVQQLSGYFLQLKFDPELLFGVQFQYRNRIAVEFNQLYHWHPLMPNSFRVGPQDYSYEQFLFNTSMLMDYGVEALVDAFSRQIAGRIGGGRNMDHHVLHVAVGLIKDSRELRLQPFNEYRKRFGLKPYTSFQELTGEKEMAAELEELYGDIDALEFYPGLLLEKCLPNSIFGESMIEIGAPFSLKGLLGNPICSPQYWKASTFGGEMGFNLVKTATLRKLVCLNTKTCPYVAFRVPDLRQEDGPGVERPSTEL

For the molecule `COc1ccc(-c2nc(SCCNS(C)(=O)=O)[nH]c2-c2ccc(OC)cc2)cc1` [Compound T63, N^1-{2-[4,5-Bis(4-methoxyphenyl)-1H-imidazol-2-ylsulfanyl]ethyl}-methanesulfonamide], the IC50 (Table 10, alkylsulfonamides, pig platelets, read-out: MDA IC50) came to 76 nM.

In the case of `COc1ccc(-c2[nH]c(SCCNC(=O)c3ccccc3)nc2-c2ccc(Cl)cc2)cc1` [Compound T110, N^1-{2-[4-(4-Chlorophenyl)-5-(4-methoxyphenv)-1H-imidazol-2-yl-sufanyl]ethyl}benzamide], the IC50 under setting [1] is 3310 nM.

`COc1ccc(-c2nc(SCC(=O)c3ccc(Cl)cc3)[nH]c2-c2ccc(OC)cc2)cc1` [Compound T12]: under “Table 4, aryl ketones, pig platelets, read-out: MDA IC50”, the IC50 came to 46 nM.

Turning to `COc1ccc(C(=O)NCCSc2nc(-c3ccc(OC)cc3)c(-c3ccc(OC)cc3)[nH]2)cc1` [Compound T45, N^1-{2-[4,5-Bis(4-methoxyphenyl)-1H-imidazol-2-ylsufanyl]ethyl}-4-methoxybenzamide], the IC50 under setting [1] was 1000 nM.

Consider `COc1ccc(-c2nc(SCCNC(=O)c3ccco3)[nH]c2-c2ccc(OC)cc2)cc1` [Compound T53, N^1-{2-[4,5-Bis(4-methoxyphenyl)-1H-imidazol-2-ylsulfanyl]ethyl}furan-2-carboxamide], for which, under setting [2], the IC50 was 347 nM.

Consider `COc1ccc(-c2nc(SCCNC(=O)c3ccc4ccccc4c3)[nH]c2-c2ccc(OC)cc2)cc1` [Compound T56, N^1-{2-[4,5-Bis(4-methoxyphenyl)-1H-imidazol-2-ylsulfanyl]ethyl}-2-naphthamide], for which the IC50 under setting [2] is 39.8 nM.

On to `COc1ccc(-c2nc(SCCNS(=O)(=O)c3ccc4ccccc4c3)[nH]c2-c2ccc(OC)cc2)cc1` [Compound T68, N^1-{2-[4,5-Bis(4-methoxyphenyl)-1H-imidazol-2-ylsulfanyl]ethyl}-naphthalene-2-sulfonamide], for which the IC50 (Table 12, naphthylsulfonamides, pig platelets, read-out: MDA pIC50 (converted)) is 129 nM.

For the molecule `COc1ccc(-c2nc(SCCNC(=O)c3ccc(Cl)cc3Cl)[nH]c2-c2ccc(OC)cc2)cc1` [Compound T35, N^1-{2-[4,5-Bis(4-methoxyphenyl)-1H-imidazol-2-ylsufanyl]ethyl}-2,4-dichlorobenzamide], the IC50 under setting [1] is 151 nM.

As to `COc1ccc(-c2nc(SCCNC(=O)c3cc(Cl)cc(Cl)c3)[nH]c2-c2ccc(OC)cc2)cc1` [Compound T37, N^1-{2-[4,5-Bis(4-methoxyphenyl)-1H-imidazol-2-ylsulfanyl]ethyl}-3,5-dichlorobenzamide], the IC50 under setting [3] is 520 nM.

On to `O=C(NCCSc1nc(-c2ccccc2)c(-c2ccccc2)[nH]1)c1ccccc1` [Compound T94], for which, under setting [1], the IC50 is 2090 nM.

As to `COc1ccc(-c2nc(SCCNC(=O)c3c(Cl)cccc3Cl)[nH]c2-c2ccc(OC)cc2)cc1` [Compound T36, N^1-{2-[4,5-Bis(4-methoxyphenyl)-1H-imidazol-2-ylsufanyl]ethyl}-2,6-dichlorobenzamide], the IC50 under setting [1] was 110 nM.

Take `COc1ccc(-c2nc(SCC(=O)Nc3ccc(Cl)cc3)[nH]c2-c2ccc(OC)cc2)cc1` [Compound T10, N^1-(4-Chlorophenyl)-2-[4,5-bis(4-methoxyphenyl)-1H-imidazol-2-yl-sufanyl]acetamide]: the IC50 (Table 2, sulfanylacetamides, pig platelets, read-out: MDA pIC50 (converted)) is 209 nM.

Turning to `COc1ccc(-c2nc(SCCNC(=O)Cc3ccccc3)[nH]c2-c2ccc(OC)cc2)cc1` [Compound T59, N^1-{2-[4,5-Bis(4-methoxyphenyl)-1H-imidazol-2-ylsulfanyl]ethyl}-2-phenylacetamide], where the note is “Table 9, alkylamides, pig platelets, read-out: MDA IC50”, the IC50 worked out at 54 nM.

Take `CCOC(=O)CS(=O)(=O)c1nc(-c2ccc(OC)cc2)c(-c2ccc(OC)cc2)[nH]1` [Compound T80, Ethyl 2-[4,5-bis(4-methoxyphenyl)-1H-imidazol-2-ylsulfonyl]acetate]: the IC50 is 7.5 nM (Table 14, sulfones and their sulfide analogs, pig platelets, read-out: MDA IC50); around 1 nM (tables 1 to 17, read-out: IC50 values (inhibition of cyclooxygenase-1)).

Turning to `O=C(NCCSc1nc(-c2ccc(Cl)cc2)c(-c2ccc(Cl)cc2)[nH]1)c1ccccc1` [Compound T85, N^1-{2-[4,5-Bis(4-chlorophenyl)-1H-imidazol-2-ylsufanyl]ethyl}benzamide], under setting [3], the IC50 stood at 450 nM.
